# “Also recorded” adds a separate entry of the source. Read-outs that look alike come from different tables or passages of the source.
# Tests used:
# [1] = system: cisplatin-induced hearing loss; settings: mouse; previous work; cited from earlier work
# [2] = system: zebrafish lateral line neuromast hair cells; experiment: Zebrafish neuromast hair cell protection from cisplatin; format: in vivo; settings: for protection of zebrafish lateral line neuromast hair cells from cisplatin toxicity: pre-incubation, then co-incubation with cisplatin for 6 hours
# Description: (§1) Four days post-fertilization (dpf) zebrafish (Danio rerio) larvae were obtained by pair mating of adult TuAB fish maintained at Creighton University by standard methods approved by the Institutional Animal Care and Use Committee.
# Animals were immunostained for the hair cell marker, otoferlin (HCS-1, DSHB), and process for fluorescence microscopy. Otic, middle, and opercular neuromasts were identified, and hair cells were manually counted using a Zeiss AxioSkop 2 fluorescence microscope with a 40× oil objective.
# (§2) Control animals were exposed to 0.1% DMSO in E3 media. Images were taken employing a Zeiss LSM 710 confocal microscope with a 63× oil objective.
# (§3) For the screening of the effect of PROTAC-8, neuromast hair cell counts were performed manually, employing a Zeiss AxioSkop 2 fluorescence microscope with a 40× oil objective. Confocal imaging was performed using a Zeiss LSM 710 confocal laser scanning image system with a 63× oil objective. Images were captured at room temperature with automatically set sectioning. The acquired images were processed with ZEN black edition software. Z-stack images are presented as flat Z-projections.
# CDK2 [3] = experiment: CDK2 abundance in total zebrafish lysates (immunoblot); format: in vivo, zebrafish (Danio rerio); settings: at concentrations of 0.1 nM and 1 μM
# Method: (§4) The next day fish were transferred to a fresh solution of kainic acid 300 μM for 50 min, led recover in fresh E3 media for 2 hours, and fixed with 4% paraformaldehyde. Animals were processed for immunofluorescence analysis as described for the cisplatin treatments. After the 24 hours incubation with PROTAC-8 and before the incubation with the ototoxin, some fish were collected for immunoblot analysis of CDK2 abundance.
# (§5) Specific bands were quantified using ImageJ (NIH).
# Further to find the effect of AZD5438-PROTAC 8 (Example 2) in protecting zebrafish hair cells from cisplatin otoxicity, zebrafish were pre-incubated with AZD5438-PROTAC 8 and then co-incubated with cisplatin for six hours. […] To check the degradation of CDK2 in zebrafish, fish were treated with AZD5438-PROTAC 8 in different concentration and total zebrafish lysates used for immunoblots (FIG. 12B). AZD5438-PROTAC 8 degrades CDK2 at concentrations of 0.1 nM and 1 μM (FIGS. 12B-12C).
# neuromast hair cells = experiment: Zebrafish neuromast hair cell protection from kainic acid; format: in vivo, zebrafish (Danio rerio); settings: kainic acid 300 μM for 50 min after pre-treatment
# Method: as §1, with “Committee. Experimental fish were maintained at 28.5° C. in E3 media (5 mM NaCl, 0.17 mM KCl, 0.33 mM CaCl2 and […] MgSO4, pH 7.2) until the day of the experiment.” for “Committee.”
# as §4, §2
# as §3, with “Z-stack images are presented as flat Z-projections.” left out
# [4] = system: zebrafish lateral line neuromast hair cells; settings: zebrafish lateral line neuromasts, background statement, cited from earlier work
# cochlear explants = settings: cited from earlier work
# CDK1, CDK5, CDK7 or CDK9 = experiment: Abundance of closely related CDKs in HEI-OC1 cells (immunoblot); format: cell-based; settings: 24 hours
# Description: as §5
# CDK2 [5] = biological target: T1, CDK2 (Homo sapiens, UniProt P24941); experiment: CDK2 degradation in HeLa cell line (immunoblot); format: cell-based; settings: HeLa cells incubated overnight, different concentrations
# T1 construct: endogenous in cells; host or cells: HeLa
# Method: (§6) To test the efficacy of the synthesized AZD5438-PROTACs, HeLa cells were incubated overnight with different concentrations of AZD5438-PROTAC Examples 1, 2, 5, and 6.
# CDK2 [6] = biological target: CDK2 (Mus musculus, UniProt P97377); settings: HEI-OC1 cells; for CDK2 degradation (immunoblot): 0.1 nM to 1 μM
# Method: HEI-OC1 cells were maintained in DMEM with 10% of Fetal bovine serum at 33° C. in a 10% CO2 atmosphere. […] Cells were harvested in RIPA buffer (NaCl 150 mM, Tris-HCl 50 mM, Nonidet-40 1%, Sodium deoxycholate 0.5%, SDS 0.1%, pH 7.4) containing protease (Sigma-Aldrich, MO P8340) and phosphatase inhibitors (ThermoFisher, CA, A32957) for immunoblot analysis.
# Lysates were prepared after a 24 hours incubation and processed for Western blot analysis.
# Membranes were blocked for 1 hour at room temperature with 3% milk followed by overnight incubation with the primary antibody in 3% milk. After several washes and the secondary incubation for 1 hour, membranes were developed employing an iBright FL1000 (ThermoFisher, CA). Immunoblots were stripped and probed for β-actin as the loading control. Specific bands were quantified using ImageJ (NIH).
# CDK1 = biological target: T2, CDK1 (Homo sapiens, UniProt P06493); experiment: CDK1 degradation in HeLa cell line (immunoblot); format: cell-based; settings: HeLa cells incubated overnight
# T2 construct: endogenous in cells; host or cells: HeLa
# Method: as §6
# CDK9 = biological target: T3, CDK9 (Homo sapiens, UniProt P50750); experiment: CDK9 degradation in HeLa cell line (immunoblot); format: cell-based; settings: HeLa cells incubated overnight
# T3 construct: endogenous in cells; host or cells: HeLa
# Method: as §6
# T3 sequence (P50750 whole entry): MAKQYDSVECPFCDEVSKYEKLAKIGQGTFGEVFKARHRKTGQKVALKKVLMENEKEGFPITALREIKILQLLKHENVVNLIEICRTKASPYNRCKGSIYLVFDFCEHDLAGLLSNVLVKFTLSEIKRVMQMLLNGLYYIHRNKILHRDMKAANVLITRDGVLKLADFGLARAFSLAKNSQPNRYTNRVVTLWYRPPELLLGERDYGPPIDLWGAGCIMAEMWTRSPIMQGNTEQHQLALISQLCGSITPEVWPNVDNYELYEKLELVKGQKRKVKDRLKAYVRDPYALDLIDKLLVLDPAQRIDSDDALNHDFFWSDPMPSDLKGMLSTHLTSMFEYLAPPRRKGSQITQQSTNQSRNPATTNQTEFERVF
# T2 sequence (P06493 whole entry): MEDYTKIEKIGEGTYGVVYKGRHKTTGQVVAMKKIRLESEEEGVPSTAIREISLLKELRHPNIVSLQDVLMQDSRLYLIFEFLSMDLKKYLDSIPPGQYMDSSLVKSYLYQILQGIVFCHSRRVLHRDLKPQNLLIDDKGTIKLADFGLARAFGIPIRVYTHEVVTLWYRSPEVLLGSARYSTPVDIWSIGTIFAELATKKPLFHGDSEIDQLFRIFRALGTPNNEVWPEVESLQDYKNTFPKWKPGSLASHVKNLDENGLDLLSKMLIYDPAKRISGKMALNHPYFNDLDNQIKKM
smiles,measurement,setting,value
O=C(NC1CCNCC1)c1n[nH]cc1NC(=O)c1c(Cl)cccc1Cl [AT7519],protection against cisplatin-induced ototoxicity / hearing loss in vivo,[1],can prevent cisplatin-induced ototoxicity in vivo
Cc1ncc(-c2ccnc(Nc3ccc(S(C)(=O)=O)cc3)n2)n1C(C)C [AZD5438],protection of zebrafish lateral line neuromast hair cells from cisplatin toxicity,[2],able to protect the zebrafish lateral line neuromasts from cisplatin and kainic acid damage
same,CDK2 degradation in zebrafish,CDK2 [3],without CDK2 degradation
same,protection of neuromast hair cells from kainic acid damage,neuromast hair cells,able to protect the zebrafish lateral line neuromasts from cisplatin and kainic acid damage
same,protection of zebrafish lateral line against cisplatin ototoxicity (earlier studies),[4],hair cell loss was reduced
same,protection of zebrafish lateral line against cisplatin ototoxicity (earlier studies),[4]; listed as ACD5438,protects zebrafish lateral line against cisplatin ototoxicity
same,IC50,"cochlear explants; cochlear explants, cisplatin, read-out: IC50, protection against cisplatin toxicity in cochlear explants",5 nM
same,protection against cisplatin-induced ototoxicity in mouse cochlear explants,cochlear explants; previous study,best protection against cisplatin-induced ototoxicity
same,protection against cisplatin-induced ototoxicity / hearing loss in vivo,[1],best protection against cisplatin-induced ototoxicity; also recorded: fully protects against cisplatin-induce hearing loss in mice by local delivery; also recorded: can prevent cisplatin-induced ototoxicity in vivo; also recorded: hair cell loss was reduced
"Cc1ncc(-c2ccnc(Nc3ccc(S(=O)(=O)CCCc4cn(CCOCCOCCOCCNc5cccc6c5C(=O)N(C5CCC(=O)NC5=O)C6=O)nn4)cc3)n2)n1C(C)C (centres unmarked) [Example 1, 2-(2,6-dioxopiperidin-3-yl)-4-((2-(2-(2-(2-(4-(3-((4-((4-(1-isopropyl-2-methyl-1H-imidazol-5-yl)pyrimidin-2-yl)amino)phenyl)sulfonyl)propyl)-1H-1,2,3-triazol-1-yl)ethoxy)ethoxy)ethoxy)ethyl)amino)isoindoline-1,3-dione]","degradation / abundance of closely related CDKs (CDK1, CDK5, CDK7, CDK9); selectivity","CDK1, CDK5, CDK7 or CDK9",nor changes in the abundance of any of the closely related CDKs
same,CDK2 degradation (immunoblot),CDK2 [5],only the treatment with AZD5438-PROTAC-8 resulted in the degradation of CDK2
same,CDK2 degradation (immunoblot),CDK2 [6]; 24 hours,did not show any CDK2 degradation
"Cc1ncsc1-c1ccc(CNC(=O)[C@@H]2C[C@@H](O)CN2C(=O)[C@@H](NC(=O)COCCn2cc(CCCS(=O)(=O)c3ccc(Nc4nccc(-c5cnc(C)n5C(C)C)n4)cc3)nn2)C(C)(C)C)cc1 [Example 2, (2S,4R)-4-hydroxy-1-((S)-2-(2-(2-(4-(3-((4-((4-(1-isopropyl-2-methyl-1H-imidazol-5-yl)pyrimidin-2-yl)amino)phenyl)sulfonyl)propyl)-1H-1,2,3-triazol-1-yl)ethoxy)acetamido)-3,3-dimethylbutanoyl)-N-(4-(4-methylthiazol-5-yl)benzyl)pyrrolidine-2-carboxamide]","degradation / abundance of closely related CDKs (CDK1, CDK5, CDK7, CDK9); selectivity","CDK1, CDK5, CDK7 or CDK9",selective for CDK2 degradation
same,protection of zebrafish hair cells from cisplatin ototoxicity (FIG. 11A),"[2]; five-day post-fertilization fish, 1 hour pre-incubation, 6 hours co-incubation with cisplatin 400 μM",protects zebrafish hair cells from cisplatin otoxicity
same,protection of zebrafish lateral line neuromast hair cells from cisplatin toxicity,[2]; listed as AZD5438-PROTAC 8,significantly protects the zebrafish lateral line neuromasts from cisplatin toxicity
same,protection of zebrafish lateral line neuromast hair cells from cisplatin toxicity,[2]; listed as PROTAC-8,able to protect the zebrafish lateral line neuromasts from cisplatin and kainic acid damage
same,toxic effect of PROTAC alone on neuromast hair cells,"[2]; zebrafish, without cisplatin (FIG. 11A)",did not show any toxic effect
same,CDK2 degradation in zebrafish,CDK2 [3],degrades CDK2
same,protection of neuromast hair cells from kainic acid damage,neuromast hair cells,able to protect the zebrafish lateral line neuromasts from cisplatin and kainic acid damage
same,CDK2 degradation (immunoblot),CDK2 [5],resulted in the degradation of CDK2
same,CDK1 degradation (immunoblot),CDK1,No significant degradation
same,CDK9 degradation (immunoblot),CDK9,No significant degradation
same,CDK2 degradation on co-incubation with proteasome inhibitor MG-132,"CDK2 [6]; 100 nM PROTAC-8 and 300 nM MG-132, 24 hours",abolished CDK2 degradation
same,CDK2 degradation,"CDK2 [6]; 24 hours, 100 nM concentration",around 50%
same,DC50,"CDK2 [6]; read-out: half maximal degradation concentration (DC50), CDK2 degradation",> 1000 nM
"O=C1CCC(N2C(=O)c3cccc(NCCOCCOCCOCCn4cc(CO[C@H]5CC[C@H](NC(=O)c6n[nH]cc6NC(=O)c6c(F)cccc6F)CC5)nn4)c3C2=O)C(=O)N1 (some centres unmarked) [Example 3, 4-(2,6-difluorobenzamido)-N-((1r,4r)-4-((1-(2-(2-(2-(2-((2-(2,6-dioxopiperidin-3-yl)-1,3-dioxoisoindolin-4-yl)amino)ethoxy)ethoxy)ethoxy)ethyl)-1H-1,2,3-triazol-4-yl)methoxy)cyclohexyl)-1H-pyrazole-3-carboxamide]","degradation / abundance of closely related CDKs (CDK1, CDK5, CDK7, CDK9); selectivity","CDK1, CDK5, CDK7 or CDK9",nor changes in the abundance of any of the closely related CDKs
same,CDK2 degradation (immunoblot),CDK2 [6]; 24 hours,did not show any CDK2 degradation
"Cc1ncsc1-c1ccc(CNC(=O)[C@@H]2C[C@@H](O)CN2C(=O)[C@@H](NC(=O)COCCn2cc(CO[C@H]3CC[C@H](NC(=O)c4n[nH]cc4NC(=O)c4c(F)cccc4F)CC3)nn2)C(C)(C)C)cc1 [Example 4, 4-(2,6-difluorobenzamido)-N-((1S,4r)-4-((1-(2-(2-(((S)-1-((2S,4R)-4-hydroxy-2-((4-(4-methylthiazol-5-yl)benzyl)carbamoyl)pyrrolidin-1-yl)-3,3-dimethyl-1-oxobutan-2-yl)amino)-2-oxoethoxy)ethyl)-1H-1,2,3-triazol-4-yl)methoxy)cyclohexyl)-1H-pyrazole-3-carboxamide]","degradation / abundance of closely related CDKs (CDK1, CDK5, CDK7, CDK9); selectivity","CDK1, CDK5, CDK7 or CDK9",nor changes in the abundance of any of the closely related CDKs
same,CDK2 degradation (immunoblot),CDK2 [6]; 24 hours,did not show any CDK2 degradation
